These results are taken from ChEMBL document CHEMBL2057108 (Bioorg Med Chem Lett, 2012).

Structures are written as SMILES. The source made the active and inactive calls. A value given as a limit tells only on which side of the number the result lay.

The target in data set [1] is T1, 5-hydroxytryptamine receptor 4 (Homo sapiens, UniProt Q13639). As to the kind of experiment: biochemical.
Description: Displacement of [3H]GR113808 from human recombinant 5HT4C receptor expressed in HEK293 cells
In a further data set the target is hERG (KCNH2) (Homo sapiens, UniProt Q12809). The experiment in a line: Inhibition of human ERG expressed in CHO cells at 3 uM. Type of data set: cell-based. The settings on record: CHO cells expressing human ERG.
Sequence of hERG (KCNH2) (Q12809 whole entry): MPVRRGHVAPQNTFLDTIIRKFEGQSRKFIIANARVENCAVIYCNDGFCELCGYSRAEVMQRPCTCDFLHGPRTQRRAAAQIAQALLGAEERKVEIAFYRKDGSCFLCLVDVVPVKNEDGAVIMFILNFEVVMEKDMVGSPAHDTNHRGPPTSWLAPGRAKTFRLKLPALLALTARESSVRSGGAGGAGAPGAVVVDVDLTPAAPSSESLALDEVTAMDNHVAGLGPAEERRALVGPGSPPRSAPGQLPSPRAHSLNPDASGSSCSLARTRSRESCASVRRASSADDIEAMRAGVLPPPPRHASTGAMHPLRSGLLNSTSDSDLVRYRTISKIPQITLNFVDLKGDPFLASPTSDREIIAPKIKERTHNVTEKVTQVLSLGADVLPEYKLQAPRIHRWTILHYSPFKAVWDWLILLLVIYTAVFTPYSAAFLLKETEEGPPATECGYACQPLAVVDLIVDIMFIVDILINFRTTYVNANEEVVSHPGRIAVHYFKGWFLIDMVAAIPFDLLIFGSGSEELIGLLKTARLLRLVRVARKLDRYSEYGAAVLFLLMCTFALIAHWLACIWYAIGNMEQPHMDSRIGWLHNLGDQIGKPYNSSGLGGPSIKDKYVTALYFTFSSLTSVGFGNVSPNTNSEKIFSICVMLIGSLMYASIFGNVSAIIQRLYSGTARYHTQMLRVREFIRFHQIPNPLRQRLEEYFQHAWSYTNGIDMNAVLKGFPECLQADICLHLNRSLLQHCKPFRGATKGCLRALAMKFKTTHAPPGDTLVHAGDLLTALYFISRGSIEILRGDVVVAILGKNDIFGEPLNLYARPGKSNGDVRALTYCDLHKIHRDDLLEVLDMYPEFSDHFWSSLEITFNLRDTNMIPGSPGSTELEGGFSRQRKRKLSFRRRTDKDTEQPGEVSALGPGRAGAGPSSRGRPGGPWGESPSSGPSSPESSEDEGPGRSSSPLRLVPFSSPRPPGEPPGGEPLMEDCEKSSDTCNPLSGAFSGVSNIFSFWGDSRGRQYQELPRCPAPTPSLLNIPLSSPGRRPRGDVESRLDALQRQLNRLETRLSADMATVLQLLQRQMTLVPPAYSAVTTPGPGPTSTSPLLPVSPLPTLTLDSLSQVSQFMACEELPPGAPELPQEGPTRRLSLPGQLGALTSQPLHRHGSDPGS
Data set [2] addresses T1, 5-hydroxytryptamine receptor 4. As to the kind of experiment: Intrinsic activity at human 5HT4C receptor expressed at 100 fold physiological-level in HEK293 cells assessed as cAMP accumulation relative to 5HT. Type of data set: functional, cell-based.
Data set [3] has the same target. As to the kind of experiment: Agonist activity at human 5HT4C receptor expressed at 100 fold physiological-level in HEK293 cells assessed as cAMP accumulation. Type of data set: functional, cell-based. On the technique in general: cAMP levels reflect the balance of adenylyl cyclase and phosphodiesterase activity.
Data set [4] can be described thus: Half life in rat liver microsomes. The format is ADME, Microsome. To be noted: liver microsomes. On the technique in general: Liver microsomes are vesicles of endoplasmic reticulum, rich in cytochrome P450 enzymes.
The species entered for a further data set is Homo sapiens. The experiment in a line: Selectivity ratio of Ki for human 5HT3A receptor to Ki for human 5HT4C receptor.
Data set [5] can be described thus: Permeability across human Caco2 cells. The format is ADME, cell-based. The settings on record: Caco-2, read-out: Kp. A general note: Caco-2 monolayers are a common model of the intestinal barrier.
Data set [6] concerns the target T1, 5-hydroxytryptamine receptor 4. The experiment in a line: Intrinsic activity at human 5HT4C receptor expressed in a cell line expressing receptor at 10 fold physiological-level assessed as cAMP accumulation relative to 5HT. Type of data set: functional.
Data set [7] shares this target. The experiment in a line: 5-HT4C receptor-mediated exchange of GDP for europium labeled GTP (intrinsic activity).
Data set [8] has the same target. As to the kind of experiment: 5-HT4C receptor-mediated exchange of GDP for europium labeled GTP (pEC50).
The target is the same in data set [9]. The experiment in a line: Agonist activity at human 5HT4C receptor expressed in a cell line expressing receptor at 10 fold physiological-level assessed as cAMP accumulation. Type of data set: functional.
The subject of another data set is Rattus norvegicus. As to the kind of experiment: 5-HT4 receptor-mediated esophageal relaxation in anesthetized rat (following i.v. administration) using digital sonomicrometry. The format is functional. The settings on record: Sprague-Dawley, iv.
Data set [10] can be described thus: AUC (0 to t) in Sprague-Dawley rat at 5 mg/kg, po. Type of data set: ADME, organism-based. More on the design: dose 5 mg/kg, route oral. To be noted: plasma.
Data set [11] is described as follows: Half life in Sprague-Dawley rat at 5 mg/kg, po. The format is ADME, organism-based. To be noted: in vivo. More on the design: dose 5 mg/kg, route oral.
A short description of data set [12]: Oral bioavailability in Sprague-Dawley rat at 5 mg/kg. The settings on record: in vivo. The format is ADME, organism-based.
Data set [13] can be described thus: Cmax in Sprague-Dawley rat at 5 mg/kg, po. The format is ADME, organism-based. More on the design: dose 5 mg/kg, route oral. To be noted: in vivo.
Another data set relates to Cavia porcellus. The experiment in a line: Agonist activity at 5HT4 receptor in sc dosed guinea pig assessed as decrease in colonic transit time of carmine red dye after 60 mins relative to vehicle treated control. Type of data set: functional, organism-based.
The target of data set [14] is 5-hydroxytryptamine receptor 4 (Cavia porcellus, UniProt O70528). The experiment in a line: Agonist activity at 5HT4 receptor in guinea pig colon assessed as longitudinal muscle plexus contraction.
Sequence of 5-hydroxytryptamine receptor 4 (Cavia porcellus, UniProt O70528) (O70528 whole entry): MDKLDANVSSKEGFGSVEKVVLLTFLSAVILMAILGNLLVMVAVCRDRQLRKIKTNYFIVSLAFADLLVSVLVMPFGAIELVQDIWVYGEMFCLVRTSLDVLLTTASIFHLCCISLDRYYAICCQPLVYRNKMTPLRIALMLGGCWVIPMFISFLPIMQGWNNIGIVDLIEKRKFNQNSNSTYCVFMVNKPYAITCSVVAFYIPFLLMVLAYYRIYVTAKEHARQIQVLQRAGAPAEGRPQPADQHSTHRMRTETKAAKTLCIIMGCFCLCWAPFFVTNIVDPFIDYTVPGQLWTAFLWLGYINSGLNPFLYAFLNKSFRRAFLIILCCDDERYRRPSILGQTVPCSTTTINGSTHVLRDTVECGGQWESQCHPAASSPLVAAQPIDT

A word on the Ki: it is the dissociation constant of the complex between target and ligand, obtained from inhibition or displacement. Read a high Ki as lower affinity. Usually inhibition stands for the drop in the measured response relative to a control, in per cent. Lower therefore signals a response near the control. As a reminder, the EC50 is the concentration needed to bring the measured effect to its halfway point. In general, half-life refers to the time needed for the level to fall by half in the phase considered. Low values mean rapid decline, high ones slow decline. As usually defined, the ED50 is the midpoint of the dose-response relation. In general, AUC(0-t) refers to exposure summed from dosing to a finite time, without extrapolation to infinity. The term bioavailability denotes the share of a dose that reaches the circulation, judged against a reference dose that is usually intravenous. By Cmax is commonly meant the peak of the concentration-time curve. One may read the pEC50 as the negative decadic logarithm of the EC50, by convention in mol/L.

T1 sequence (Q13639 whole entry): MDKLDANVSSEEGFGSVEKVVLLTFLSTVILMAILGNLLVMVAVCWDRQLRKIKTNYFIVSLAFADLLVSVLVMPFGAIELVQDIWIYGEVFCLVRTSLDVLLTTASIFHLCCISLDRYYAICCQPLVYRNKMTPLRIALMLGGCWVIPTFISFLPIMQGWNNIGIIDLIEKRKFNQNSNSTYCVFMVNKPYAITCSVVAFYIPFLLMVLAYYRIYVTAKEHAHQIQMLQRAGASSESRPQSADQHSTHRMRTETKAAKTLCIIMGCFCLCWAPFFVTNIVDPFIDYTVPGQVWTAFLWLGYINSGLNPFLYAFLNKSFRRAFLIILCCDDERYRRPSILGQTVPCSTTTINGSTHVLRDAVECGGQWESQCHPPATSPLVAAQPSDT

Take `CC(C)n1nc(C(=O)N[C@H]2C[C@H]3CC[C@@H](C2)N3CC(O)CN2CCN(S(C)(=O)=O)CC2)c2ccccc21` (stereo not given in full): the Ki in [1] was 3.98 nM. The compound also gave an inhibition at 3 µM at hERG (KCNH2) of 4%. The Intrinsic activity in [2] was determined as 95%. The EC50 in [3] is 0.794 nM. The half-life in data set [4] is greater than 1.5 h. The Ratio Ki in the data set filed under Homo sapiens was 7300. Further, the Papp in data set [5] came out at 19 ×10⁻⁶ cm/s.
In the case of `CC(C)n1c(=O)c(C(=O)N[C@H]2C[C@H]3CC[C@@H](C2)N3C[C@@H](O)CN2CCN(S(C)(=O)=O)CC2)cc2ccccc21`, the Intrinsic activity in data set [6] and in data set [7] was greater than 100% in each case. Moreover, the EC50 in data set [8] was 3.98 nM; in data set [9], 2 nM. The Ratio Ki in the data set listed under Homo sapiens worked out at 7400. In the data set on Rattus norvegicus, the 50% effect level (ED50) was put at a dose of 0.142 mg/kg.
The compound `CC(C)n1nc(C(=O)N[C@H]2C[C@H]3CC[C@@H](C2)N3CCCCCCN2CCN(S(C)(=O)=O)CC2)c2ccccc21` gave a Ki in data set [1] of 2.51 nM. Moreover, in data set [2], the Intrinsic activity came to 75%. In data set [3], the EC50 is 12.6 nM. In addition, the Ratio Ki in the data set listed under Homo sapiens stood at 3.6.
`CC(C)n1nc(C(=O)N[C@H]2C[C@H]3CC[C@@H](C2)N3CCCCCCN2CCCCC2)c2ccccc21` showed a Ki in data set [1] of 1 nM. Moreover, the Intrinsic activity in data set [2] amounted to 102%. Further, the EC50 in [3] was 2.51 nM. The Ratio Ki in the data set listed under Homo sapiens was determined as 12.
`CC(C)n1nc(C(=O)N[C@H]2C[C@H]3CC[C@@H](C2)N3C[C@@H](O)CN2CCN(S(C)(=O)=O)CC2)c2ccccc21`: the affinity in [1] corresponds to a Ki of 2.51 nM. The AUC(0-t) in data set [10] was 240 ng·h/mL. Moreover, the figures for the half-life in [11] and in data set [4] were 7.4 h and greater than 1.5 h, respectively. This compound yielded an inhibition at 3 µM on hERG (KCNH2) of 7%. Also, the Intrinsic activity in data set [2] amounted to 86%. Further, in data set [3], the EC50 was 0.398 nM. This compound came in with a bioavailability in [12] of 36%. Also, in the data set filed under Homo sapiens, the Ratio Ki was 23000. Also, the Cmax in data set [13] worked out at 35 ng/mL. For the same compound, the Papp in data set [5] worked out at 19 ×10⁻⁶ cm/s.
In [1], `CC(C)n1nc(C(=O)N[C@H]2C[C@H]3CC[C@@H](C2)N3C[C@H](O)CN2CCN(S(C)(=O)=O)CC2)c2ccccc21` gave a Ki of 7.94 nM. In addition, 3 µM produced 7% inhibition against hERG (KCNH2). Further, the Intrinsic activity in [2] turned out to be 94%. Also, in [3], the EC50 is 0.794 nM. The compound also displayed a half-life in data set [4] greater than 1.5 h. The Ratio Ki in the data set listed under Homo sapiens stood at 240. Also, in [5], the Papp was determined as 18 ×10⁻⁶ cm/s.
`CC(C)n1nc(C(=O)N[C@H]2C[C@H]3CC[C@@H](C2)N3CC(O)CN2CCC(CNS(C)(=O)=O)CC2)c2ccccc21` (stereo not given in full) had a Ki in data set [1] of 2.51 nM. Besides, in [2], the Intrinsic activity was 93%. In addition, the EC50 in data set [3] is 0.631 nM. In data set [4], the half-life was greater than 1.5 h. For the same compound, the Ratio Ki in the data set filed under Homo sapiens was 19000. Moreover, in [5], the Papp was found to be 1 ×10⁻⁶ cm/s.
Consider `COC[C@@H]1CCCN1CC(O)CN1[C@@H]2CC[C@H]1C[C@@H](NC(=O)c1nn(C(C)C)c3ccccc13)C2` (stereo not given in full), for which, in [1], the Ki is 3.98 nM. Besides, at hERG (KCNH2), the inhibition at 3 µM is 33%. Besides, the Intrinsic activity in [2] stood at 108%. In addition, in data set [3], the EC50 was 2.51 nM. Besides, the half-life in data set [4] amounted to 1.25 h. For the same compound, in the data set listed under Homo sapiens, the Ratio Ki amounted to 3000. The Papp in [5] came out at 48 ×10⁻⁶ cm/s.
As for `CC(C)N(C)CC(O)CN1[C@@H]2CC[C@H]1C[C@@H](NC(=O)c1nn(C(C)C)c3ccccc13)C2` (stereo not given in full), the affinity in data set [1], expressed as Ki, was 3.98 nM. The same compound gave an inhibition at 3 µM against hERG (KCNH2) of 29%. The Intrinsic activity in [2] was 78%. In addition, the EC50 in data set [3] is 5.01 nM. In data set [4], this compound registered a half-life greater than 1.5 h. In addition, the Ratio Ki in the data set listed under Homo sapiens is 6300. In addition, the Papp in data set [5] turned out to be 26 ×10⁻⁶ cm/s.
In the case of `CC(C)n1nc(C(=O)N[C@H]2C[C@H]3CC[C@@H](C2)N3CCCCCCN2CCC(CNS(C)(=O)=O)CC2)c2ccccc21`, the Ki in data set [1] was 1.58 nM. Further, the Intrinsic activity in data set [2] was 91%. Besides, the EC50 in data set [3] was 1.58 nM. Further, the Ratio Ki in the data set listed under Homo sapiens turned out to be 4.3.
`CCCCCNC(=N)N/N=C/c1c[nH]c2ccc(OC)cc12` [TEGASEROD]: the outcome in the data set with Cavia porcellus was inactive. Besides, the Intrinsic activity in [6] amounted to 99%; in data set [7], 71%; in data set [2] it was 115%. Moreover, the inhibition at 3 µM against hERG (KCNH2) was determined as 33%. Besides, the EC50 in [8] is 15.8 nM; in data set [3] it was 1 nM; in data set [14], 6.31 nM. In the data set listed under Homo sapiens, the Ratio Ki turned out to be 580. For the same compound, in data set [9], the pEC50 is 8.7.
Regarding `CC(C)n1nc(C(=O)N[C@H]2C[C@H]3CC[C@@H](C2)N3CC(O)CN2CCCCC2)c2ccccc21` (stereo not given in full), in data set [1], the inhibitory constant (Ki) was 2 nM. The same compound registered an inhibition at 3 µM against hERG (KCNH2) of 62%. In addition, the Intrinsic activity in data set [2] worked out at 85%. For the same compound, the EC50 in data set [3] was 2 nM. Moreover, in data set [4], the half-life is greater than 1.5 h. Moreover, the Ratio Ki in the data set filed under Homo sapiens was 13000. The Papp in [5] was 30 ×10⁻⁶ cm/s.
In turn, `COC[C@@H]1CCCN1CCCCCCN1[C@@H]2CC[C@H]1C[C@@H](NC(=O)c1nn(C(C)C)c3ccccc13)C2` gave a Ki in [1] of 0.794 nM. Besides, in [2], the Intrinsic activity is 117%. For the same compound, in data set [3], the EC50 was 0.794 nM. Besides, the Ratio Ki in the data set filed under Homo sapiens stood at 14.
As for `CC(C)n1nc(C(=O)N[C@H]2C[C@H]3CC[C@@H](C2)N3CCN2CCN(S(C)(=O)=O)CC2)c2ccccc21`, the Ki in [1] was 12.6 nM. This compound had an AUC(0-t) in [10] of 260 ng·h/mL. Moreover, the half-life was 1.8 h in data set [11] and greater than 1.5 h in [4]. The compound also gave an inhibition at 3 µM against hERG (KCNH2) of 9%. The Intrinsic activity in [2] was 88%. The EC50 in data set [3] is 3.98 nM. In [12], this compound registered a bioavailability of 48%. For the same compound, the Ratio Ki in the data set listed under Homo sapiens was found to be 110. In addition, the Cmax in data set [13] came to 99 ng/mL. The Papp in data set [5] worked out at 31 ×10⁻⁶ cm/s.
In [1], `CC(C)N(C)CCCCCCN1[C@@H]2CC[C@H]1C[C@@H](NC(=O)c1nn(C(C)C)c3ccccc13)C2` showed a Ki of 1 nM. In data set [2], the Intrinsic activity amounted to 92%. Also, the EC50 in data set [3] is 5.01 nM. In the data set filed under Homo sapiens, the Ratio Ki was 23.
Take `CC(C)n1nc(C(=O)N[C@H]2C[C@H]3CC[C@@H](C2)N3)c2ccccc21`: the Ratio Ki in the data set listed under Homo sapiens was less than 1.
